Measurements from paper PMC6013247, “Preclinical characterization of INCB053914, a novel pan-PIM kinase inhibitor, alone and in combination with anticancer agents, in models of hematologic malignancies” (PLoS ONE, 2018).

Tests used:
[1] = tested on: BAD phosphorylation in MOLM-16 tumors; test: Intratumoral pBAD inhibition in xenograft-bearing mice; format: in vivo; details: Mus musculus, MOLM16, single oral dose, 4 hours post dose, read-out: IC50, inhibition of BAD phosphorylation relative to vehicle in tumors
Method: (§1) Human MOLM-16 (AML) and KMS-12-BM (MM) xenografts were established in SCID mice. For the evaluation of intratumoral pBAD inhibition, tumor-bearing mice (three to eight mice/group) were treated with a single oral dose of INCB053914 at doses ranging from 0 (vehicle) to 100 mg/kg. In one representative experiment, mice were sacrificed 4 hours after a single dose, and tumors were collected to analyze the levels of pBAD relative to those of vehicle-administered controls. Plasma samples were collected for pharmacokinetic analysis.

[2] = tested on: BAD phosphorylation in KMS-12-BM tumors; test: as above; format: in vivo; details: Mus musculus, single oral dose, 4 hours post dose, read-out: IC50, inhibition of BAD phosphorylation relative to vehicle in tumors
Method: as §1

KIT = KIT (Homo sapiens, UniProt P10721); test: Kinase selectivity panel; format: biochemical; details: [ATP] = 1 mM
INA-6 cells = test: STAT3(Y705) and PIM kinase substrate phosphorylation in INA-6 cells in culture; format: cell-based; details: INA-6 cells treated for 24 hours in culture
Method: Fig S1. Effects of INCB053914 on STAT3(Y705) and PIM kinase substrate phosphorylation in INA-6 cells treated for 24 hours in culture.

IGF1R = IGF1R (Homo sapiens, UniProt P08069); test: Kinase selectivity panel; format: biochemical; details: [ATP] = 1 mM
[3] = tested on: BAD phosphorylation in whole blood spiked with KMS-12-BM cells; test: BAD phosphorylation in whole blood samples spiked with tumor cells, treated ex vivo; format: cell-based; details: Homo sapiens
MOLM-13 = test: Cell proliferation assay ([3H]-thymidine); format: cell-based; details: Homo sapiens; MOLM-13 (AML); read-out: Mean (± SD) GI50
Method: (§2) The antiproliferative effects of INCB053914 on hematologic tumor cells were investigated using assays described in the Supporting Information (S2 File).
(§3) Cell proliferation assays. […] After 3 to 4 days, [^3H]-thymidine (1 μCi/well) (PerkinElmer) in PBS (10 μl) was added to the cell culture for an additional 12 hours. The incorporated radioactivity was separated by filtration with water through GF/B filters (Packard Bioscience, Meriden, Connecticut) and measured by liquid scintillation counting with a TopCount (Packard Bioscience).

CCRF-CEM = test: Cell proliferation assay ([3H]-thymidine); format: cell-based; details: Homo sapiens; CCRF-CEM (T-ALL); read-out: Mean (± SD) GI50
Method: as §2, §3

MOLP-8 = test: Cell proliferation assay ([3H]-thymidine); format: cell-based; details: MOLP-8 (MM)
Method: as §2, §3

MOLP-2 = test: Cell proliferation assay ([3H]-thymidine); format: cell-based; details: MOLP-2 (MM)
Method: as §2, §3

WSU-NHL = test: Cell proliferation assay ([3H]-thymidine); format: cell-based; details: WSU-NHL (DLBCL)
Method: as §2, §3

KMS-28-BM = test: Cell proliferation assay ([3H]-thymidine); format: cell-based; details: KMS-28-BM (MM)
Method: as §2, §3

KARPASS-422 = test: Cell proliferation assay ([3H]-thymidine); format: cell-based; details: read-out: Mean (± SD) GI50
Method: as §2, §3

Reh = test: Cell proliferation assay ([3H]-thymidine); format: cell-based; details: Reh (T-ALL)
Method: as §2, §3

EOL = test: Cell proliferation assay ([3H]-thymidine); format: cell-based; details: EOL (AML)
Method: as §2, §3

U2932 = test: Cell proliferation assay ([3H]-thymidine); format: cell-based; details: U2932 (DLBCL)
Method: as §2, §3

KMS-34 = test: Cell proliferation assay ([3H]-thymidine); format: cell-based; details: KMS-34 (MM)
Method: as §2, §3

PIM2 = PIM2 (Homo sapiens, UniProt Q9P1W9); test: PIM2 time-resolved fluorescence resonance energy transfer assay; format: biochemical; details: 1 mM ATP; read-out: Mean (SD) IC50
Method: The activity of INCB053914 against the PIM1 and PIM3 kinases was measured using AlphaScreen® assays (PerkinElmer, Inc., Shelton, Connecticut), and against PIM2 kinase using a time-resolved fluorescence resonance energy transfer assay (see Supporting Information, S1 File)
Time-resolved fluorescence resonance energy transfer assay. Reactions (20 μl) were carried out in white 384-well polystyrene plates dotted with 0.8 μl of the compound in dimethylsulfoxide in the assay buffer (50 mM Tris, pH 7.5, 0.01% Tween-20, 5 mM MgCl2, 0.01% BSA, 5 mM dithiothreitol) containing 0.05 μM fluorescein-labeled CREBtide peptide substrate (Invitrogen), 1 mM ATP, and 1 nM PIM2 (Invitrogen). After 2 hours at 25°C, reactions were stopped with 10 μl RT-FRET dilution buffer (Invitrogen) supplemented with 30 mM EDTA and 1.5 nM LanthaScreen Tb-CREB pSer133 antibody (Invitrogen). After a 30-minute incubation at room temperature, plates were read on a PHERAstar FS plate reader (BMG Labtech).

PIM3 = PIM3 (Homo sapiens, UniProt Q86V86); test: PIM3 AlphaScreen kinase assay; format: biochemical; details: 1 mM ATP; read-out: Mean (SD) IC50
Method: AlphaScreen assay. Reactions (20 μl) were carried out in white 384-well polystyrene plates (Greiner Bio-One, Kremsmünster, Austria) dotted with 0.8 μl of the compound in dimethylsulfoxide in the assay buffer (50 mM Tris, pH 7.5, 0.01% Tween-20, 5 mM MgCl2, 0.01% bovine serum albumin [BSA], 5 mM dithiothreitol) containing 0.05 μM Biotin-labeled Bcl-2–associated death promoter protein peptide substrate (AnaSpec, Fremont, California), 1 mM ATP, and 2.5 pM PIM1 (Invitrogen, Thermo Fisher Scientific, Waltham, Massachusetts), or 1.25 pM PIM3 (Millipore, Billerica, Massachusetts) enzyme. After 1 hour at 25°C, the reactions were stopped with 10 μl STOP Buffer (150 mM Tris, pH 7.5, 150 mM NaCl, 75 mM ethylenediaminetetraacetic acid [EDTA], 0.01% Tween-20, 0.3% BSA) supplemented with Phospho-Bad (Ser112) antibody (Cell Signaling Technology, Danvers, Massachusetts) diluted 666-fold, and Streptavidin donor beads (PerkinElmer, Waltham, Massachusetts), along with Protein-A acceptor beads (PerkinElmer, Akron, Ohio), at 15 μg/ml each. Supplementation of STOP buffer with beads and stopping the reactions were carried out under reduced light. […] After the reactions were stopped, the plates were incubated for 1 hour in the dark at room temperature and then read on a PHERAstar FS plate reader (BMG Labtech, Cary, North Carolina) under reduced light.

[4] = Tolerability in tumor-bearing SCID mice; format: in vivo; details: MOLM-16 and KMS-12-BM tumor-bearing mice, oral twice a day up to 100 mg/kg
Method: Non- GLP studies intended to characterize the pharmacology of INCB053914 were conducted in accordance with Incyte Corporation's Animal Use Protocols and DuPont Stine-Haskell SOPs. Animals were housed in barrier facilities fully accredited by the Association for Assessment and Accreditation of Laboratory Animal Care, International. All of the procedures were conducted under the supervision of a veterinarian and in accordance with the U.S. Public Health Service Policy on Humane Care and Use of Laboratory Animals. […] Analgesics and anesthetics could be used to minimize animal suffering and distress; neither were required during these studies. Animals on study were monitored twice daily and there were no unexpected deaths.
For the evaluation of the effects of INCB053914 on tumor growth, tumor-bearing mice (MOLM-16 xenograft, eight mice/group; KMS-12-BM xenograft, nine mice/group) were dosed orally twice a day with INCB053914 at doses ranging from 0 (vehicle) to 100 mg/kg for 15 days.

[5] = Homo sapiens, read-out: Mean (± SD) GI50

Chain of KIT (P10721 26-976): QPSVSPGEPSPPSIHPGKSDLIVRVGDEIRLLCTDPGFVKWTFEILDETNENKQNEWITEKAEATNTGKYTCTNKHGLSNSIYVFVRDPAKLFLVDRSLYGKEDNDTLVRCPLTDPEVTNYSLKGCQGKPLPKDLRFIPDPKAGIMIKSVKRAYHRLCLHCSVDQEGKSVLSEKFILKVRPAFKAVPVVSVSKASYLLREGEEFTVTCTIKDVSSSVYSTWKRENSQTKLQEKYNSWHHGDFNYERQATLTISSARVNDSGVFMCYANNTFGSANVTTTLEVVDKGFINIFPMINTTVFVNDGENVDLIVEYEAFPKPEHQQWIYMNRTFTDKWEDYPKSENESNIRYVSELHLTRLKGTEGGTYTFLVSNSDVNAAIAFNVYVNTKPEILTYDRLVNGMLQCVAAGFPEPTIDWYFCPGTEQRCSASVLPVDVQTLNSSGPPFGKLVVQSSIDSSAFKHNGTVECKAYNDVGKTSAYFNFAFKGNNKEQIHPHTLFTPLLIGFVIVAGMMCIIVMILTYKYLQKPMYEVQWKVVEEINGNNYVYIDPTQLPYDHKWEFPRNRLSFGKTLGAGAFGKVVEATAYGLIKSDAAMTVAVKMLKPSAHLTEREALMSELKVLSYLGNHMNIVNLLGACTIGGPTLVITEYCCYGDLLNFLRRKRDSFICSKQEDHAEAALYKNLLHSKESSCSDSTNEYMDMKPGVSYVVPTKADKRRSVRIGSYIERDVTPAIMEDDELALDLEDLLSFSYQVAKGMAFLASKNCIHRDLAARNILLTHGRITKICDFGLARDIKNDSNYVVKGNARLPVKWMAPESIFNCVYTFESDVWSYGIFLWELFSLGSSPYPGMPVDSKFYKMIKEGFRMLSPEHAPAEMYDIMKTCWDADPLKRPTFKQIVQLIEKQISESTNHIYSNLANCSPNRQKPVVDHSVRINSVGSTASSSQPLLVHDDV
Chain of IGF1R (P08069 31-1367): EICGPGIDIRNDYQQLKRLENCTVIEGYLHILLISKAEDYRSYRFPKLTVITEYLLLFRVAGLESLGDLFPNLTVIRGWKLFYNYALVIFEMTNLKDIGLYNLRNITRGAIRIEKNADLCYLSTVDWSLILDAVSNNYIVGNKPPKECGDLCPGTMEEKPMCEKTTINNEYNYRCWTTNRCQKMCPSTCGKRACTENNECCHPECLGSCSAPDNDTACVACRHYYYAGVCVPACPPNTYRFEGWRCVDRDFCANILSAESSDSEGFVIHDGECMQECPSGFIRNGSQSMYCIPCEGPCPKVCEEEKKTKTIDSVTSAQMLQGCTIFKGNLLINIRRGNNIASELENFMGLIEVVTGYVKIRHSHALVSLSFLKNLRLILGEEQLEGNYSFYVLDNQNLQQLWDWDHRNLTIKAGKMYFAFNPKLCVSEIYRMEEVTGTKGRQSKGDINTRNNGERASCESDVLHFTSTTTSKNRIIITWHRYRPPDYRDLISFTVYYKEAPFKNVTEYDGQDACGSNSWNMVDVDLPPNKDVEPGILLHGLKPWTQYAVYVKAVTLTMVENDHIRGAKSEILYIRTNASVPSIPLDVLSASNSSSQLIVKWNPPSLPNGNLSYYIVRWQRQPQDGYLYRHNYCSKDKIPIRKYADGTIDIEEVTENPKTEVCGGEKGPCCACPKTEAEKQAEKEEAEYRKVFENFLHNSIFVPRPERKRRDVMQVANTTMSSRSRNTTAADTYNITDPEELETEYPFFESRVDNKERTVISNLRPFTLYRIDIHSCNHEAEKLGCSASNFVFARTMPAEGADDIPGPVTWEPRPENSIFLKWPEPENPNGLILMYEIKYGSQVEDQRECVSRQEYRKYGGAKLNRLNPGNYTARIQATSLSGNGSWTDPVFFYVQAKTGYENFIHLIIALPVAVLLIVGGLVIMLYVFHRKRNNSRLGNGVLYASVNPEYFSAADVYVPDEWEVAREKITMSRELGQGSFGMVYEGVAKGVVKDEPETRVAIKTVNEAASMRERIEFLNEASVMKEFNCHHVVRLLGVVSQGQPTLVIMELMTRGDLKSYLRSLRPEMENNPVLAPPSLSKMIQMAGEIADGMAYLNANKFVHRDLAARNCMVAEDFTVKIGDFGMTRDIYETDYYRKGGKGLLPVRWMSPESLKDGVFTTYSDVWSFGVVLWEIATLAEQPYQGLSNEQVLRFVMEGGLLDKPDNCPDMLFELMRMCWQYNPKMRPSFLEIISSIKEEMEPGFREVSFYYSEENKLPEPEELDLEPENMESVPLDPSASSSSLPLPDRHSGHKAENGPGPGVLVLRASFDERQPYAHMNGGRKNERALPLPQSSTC
Chain of PIM2 (Q9P1W9 whole entry): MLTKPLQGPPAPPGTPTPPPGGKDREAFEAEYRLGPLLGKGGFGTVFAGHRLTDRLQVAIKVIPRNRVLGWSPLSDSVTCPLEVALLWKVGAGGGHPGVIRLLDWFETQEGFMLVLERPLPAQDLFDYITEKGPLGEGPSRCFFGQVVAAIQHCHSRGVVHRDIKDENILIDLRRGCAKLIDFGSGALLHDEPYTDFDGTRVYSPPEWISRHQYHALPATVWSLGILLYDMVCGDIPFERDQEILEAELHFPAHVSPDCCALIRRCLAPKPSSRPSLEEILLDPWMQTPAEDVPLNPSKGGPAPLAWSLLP

Compound: C[C@H]1CN(c2c(NC(=O)c3ccc(F)c(-c4c(F)cccc4F)n3)cnc3c2CC[C@H]3O)C[C@@H](N)[C@@H]1O.O=P(O)(O)O [INCB053914, N-((R)-4-((3R,4R,5S)-3-amino-4-hydroxy-5-methylpiperidin-1-yl)-7-hydroxy-6,7-dihydro-5H-cyclopenta[b]pyridin-3-yl)-6-(2,6-difluorophenyl)-5-fluoropicolinamide phosphate]
- IC50 [1]: 70 nM
- IC50 [2]: 145 nM
- IC50 (KIT): > 20000 nM
- pSTAT3(Y705) levels (INA-6 cells): negligible effects
- IC50 (IGF1R): > 20000 nM
- IC50 [3]: 134 nM
- GI50 (MOLM-13): > 3000 nM
- GI50 (CCRF-CEM): > 3000 nM
- GI50 (MOLP-8; [5]): 13.2 ± 7.7 nM
- Mean (SD) maximum inhibition (MOLP-8): 93.3 ± 1.7%
- Mean (SD) maximum inhibition (MOLP-2): 95.4 ± 3.2%
- GI50 (MOLP-2; read-out: Mean (± SD) GI50): 23.8 ± 10.1 nM
- GI50 (WSU-NHL; [5]): 1270 nM
- Mean (SD) maximum inhibition (WSU-NHL): 76.8 ± 10.5%
- Mean (SD) maximum inhibition (KMS-28-BM): 86.0 ± 3.7%
- GI50 (KMS-28-BM; read-out: Mean (± SD) GI50): 36.7 ± 9.9 nM
- GI50 (KARPASS-422): > 3000 nM
- GI50 (Reh; [5]): 33.7 ± 24.3 nM
- Mean (SD) maximum inhibition (Reh): 94.3 ± 5.7%
- Mean (SD) maximum inhibition (EOL): 99.5 ± 0.6%
- GI50 (EOL; read-out: Mean (± SD) GI50): 18.5 ± 6.1 nM
- GI50 (U2932; [5]): 34.5 ± 10.1 nM
- Mean (SD) maximum inhibition (U2932): 83.6 ± 8.0%
- Mean (SD) maximum inhibition (KMS-34): 98.8 ± 0.5%
- GI50 (KMS-34; read-out: Mean (± SD) GI50): 87.1 ± 28 nM
- IC50 (PIM2): 30 nM
- IC50 (PIM3): 0.12 nM
- tolerability [4]: tolerated at all doses tested
